Results as given in ChEMBL document CHEMBL6114985, “From Dyrk1A inhibitors to a novel class of antiviral agents: Targeting Enterovirus EV-A71 with 2-aryl-substituted thiophene scaffolds” (Eur J Med Chem, 2025).
Calls of active or inactive are those of the source. The calls are words filed in the database; no cut-off is given here.

Experiments:
[1] = system: Enterovirus A71; assay: Antiviral activity against Enterovirus A71 TW/2231/98 infected in human RD cells assessed as inhibition of viral plaque formation at 2.5 uM incubated for 3 to 5 days by crystal violet staining based plaque reduction assay relative to control; format: functional; settings: Enterovirus A, TW/2231/98, RD, time 3-5 day
[2] = system: Herpes Simplexvirus; assay: Antiviral activity against Herpes Simplexvirus infected in human A549 cells assessed as inhibition of viral replication at 0.95 uM relative to control; format: functional
[3] = system: Enterovirus A71; assay: Antiviral activity against Enterovirus A71 TW/2231/98 infected in human RD cells assessed as effect on viral replication incubated for 3 to 5 days by crystal violet staining based plaque reduction assay; format: functional, organism-based; settings: time 3-5 day
[4] = system: Enterovirus A71; assay: Antiviral activity against Enterovirus A71 4798 assessed as reduction in viral replication; format: functional, organism-based; settings: Enterovirus A
[5] = system: Enterovirus A71; assay: Antiviral activity against Enterovirus A71 TW/2231/98 infected in human RD cells assessed as effect on viral protein level at 10 uM preincubated with cells at 1 hr followed by compound addition and measured at 0 to 3 hrs post infection by time of addition based immunoblotting analysis; format: functional, organism-based
[6] = Lipophilicity, logD of compound by UPLC-MS analysis; format: physicochemical; settings: octanol/water
[7] = system: Enterovirus A71; assay: Antiviral activity against Enterovirus A71 TW/2231/98 infected in human RD cells assessed as inhibition of viral plaque formation at 5 uM incubated for 3 to 5 days by crystal violet staining based plaque reduction assay relative to control; format: functional; settings: Enterovirus A, TW/2231/98, RD, time 3-5 day
[8] = Metabolic stability in mouse liver microsome assessed as half life incubated for 120 mins by HPLC-MS/MS; format: ADME; settings: liver microsomes
[9] = Selectivity index, ratio of CC50 for human RD cells to EC50 for antiviral activity against enterovirus A71 TW/2231/98 infected in human RD cells; format: toxicity, cell-based; settings: read-out: Ratio CC50/EC50
[10] = system: Enterovirus A71; assay: Antiviral activity against Enterovirus A71 TW/2231/98 infected in human RD cells assessed as reduction in viral protein level at 10 uM preincubated with cells at 1 hr followed by compound addition and measured after 9 hrs post infection by time of addition based immunoblotting analysis; format: functional, organism-based
[11] = molecular target: T1, Dual specificity tyrosine-phosphorylation-regulated kinase 1A (Homo sapiens, UniProt Q13627); assay: Inhibition of DYRK1A (unknown origin) at 25 uM incubated for 1 hr relative to control
[12] = system: Human rhinovirus sp.; assay: Antiviral activity against Human rhinovirus 71803 assessed as reduction in viral replication; format: functional, organism-based
[13] = system: Herpes Simplexvirus; assay: microbe, parasite or virus in culture; settings: A549
[14] = system: Enterovirus A71; assay: Antiviral activity against Enterovirus A71 TW/2231/98 infected in human RD cells assessed as reduction in viral RNA level at 10 uM preincubated with cells at 1 hr followed by compound addition and measured after 9 hrs post infection by time of addition based RT-qPCR analysis; format: functional, organism-based
[15] = system: Enterovirus A71; assay: Antiviral activity against Enterovirus A71 TW/2231/98 infected in human RD cells assessed as effect on viral titer at 10 uM preincubated with cells at 1 hr followed by compound addition and measured at 0 to 3 hrs post infection by time of addition based plaque assay; format: functional, organism-based
[16] = system: enterovirus D68; assay: Antiviral activity against Enterovirus D68 KY 18953 assessed as reduction in viral replication; format: functional, organism-based; settings: Enterovirus D
[17] = Metabolic stability in human liver microsome assessed as intrinsic clearance incubated for 120 mins by HPLC-MS/MS; format: ADME; settings: liver microsomes, read-out: CLH
[18] = system: Coxsackievirus; assay: Antiviral activity against Coxsackievirus assessed as reduction in viral replication; format: functional, organism-based
[19] = in vitro; settings: human, A549 cells
[20] = system: Enterovirus A71; assay: Antiviral activity against Enterovirus A71 TW/2231/98 infected in human RD cells assessed as reduction in viral titer at 10 uM preincubated with cells at 1 hr followed by compound addition and measured after 9 hrs post infection by time of addition based plaque assay; format: functional, organism-based
[21] = Cytotoxicity against human A549 cells infected with Human adenovirus; format: toxicity, cell-based
[22] = Cytotoxicity against human RD cells assessed as reduction in cell growth incubated for 3 days by MTT assay; format: toxicity, cell-based; settings: time 3 day
[23] = Stability in mouse plasma assessed as half life by HPLC-MS/MS; format: ADME, cell-free
[24] = Metabolic stability in human liver microsome assessed as half life incubated for 120 mins by HPLC-MS/MS; format: ADME; settings: liver microsomes
[25] = Cytotoxicity against human A549 cells infected with Herpes Simplexvirus; format: toxicity, cell-based; settings: A549 cells infected with herpes simplex virus
[26] = Metabolic stability in mouse liver microsome assessed as intrinsic clearance incubated for 120 mins by HPLC-MS/MS; format: ADME; settings: liver microsomes, read-out: CLH
[27] = molecular target: T1, Dual specificity tyrosine-phosphorylation-regulated kinase 1A; assay: Inhibition of DYRK1A (unknown origin)
[28] = system: Enterovirus A71; assay: Antiviral activity against Enterovirus A71 TW/2231/98 infected in human RD cells assessed as effect on viral RNA level at 10 uM preincubated with cells at 1 hr followed by compound addition and measured at 0 to 3 hrs post infection by time of addition based RT-qPCR analysis; format: functional, organism-based
[29] = system: Influenza A virus; assay: Antiviral activity against influenza A virus assessed as reduction in viral replication; format: functional, organism-based
[30] = system: Enterovirus A71; assay: Antiviral activity against Enterovirus A71 TW/2231/98 infected in human RD cells assessed as inhibition of viral plaque formation at 1.25 uM incubated for 3 to 5 days by crystal violet staining based plaque reduction assay relative to control; format: functional; settings: Enterovirus A, TW/2231/98, RD, time 3-5 day
[31] = system: Human adenovirus sp.; assay: microbe, parasite or virus in culture; settings: A549
[32] = system: enterovirus D68; assay: Antiviral activity against Enterovirus D68 2795 assessed as reduction in viral replication; format: functional, organism-based; settings: Enterovirus D
[33] = system: Enterovirus A71; assay: Antiviral activity against Enterovirus A71 2231 assessed as reduction in viral replication; format: functional, organism-based; settings: Enterovirus A
[34] = system: Enterovirus A71; assay: Antiviral activity against Enterovirus A71 TW/2231/98 infected in human RD cells assessed as reduction in cytopathic effect incubated for 3 days; format: functional, organism-based; settings: Enterovirus A, TW/2231/98, RD, 72 h
[35] = Stability in human plasma assessed as half life by HPLC-MS/MS; format: ADME, cell-free

## COc1ccc(F)c(C(=O)Nc2cncc(-c3cc(-c4cccnc4)cs3)c2)c1
[1]
  inhibition at 2.5 µM: ~60%
[2]
  inhibition at 0.95 µM: 50%
[3]
  Activity: Active
[4]
  EC50: 4.2 µM
[5]
  Activity: inactive
[6]
  logD: 3.44
[7]
  inhibition at 5 µM: 80%
[8]
  half-life: 14 min
[9]
  selectivity ratio: 2.9
[10]
  Activity: Active
[11]
  inhibition: 95%
[12]
  EC50: 4.2 µM
[13]
  EC50: 1 µM
[14]
  Activity: Active
[15]
  Activity: inactive
[16]
  EC50: 3.4 µM
[17]
  microsomal CLint: 27 µL/min/mg
[18]
  EC50: 2.8 µM
[19]
  selectivity ratio: > 15
[20]
  Activity: Active
[21]
  CC50: > 10 µM
[22]
  CC50 at 72 h: 12.8 µM
[23]
  half-life: > 240 min
[24]
  half-life: 55 min
[25]
  CC50: > 15 µM
[26]
  microsomal CLint: 104 µL/min/mg
[27]
  IC50: 0.038 µM
[28]
  Activity: inactive
[29]
  EC50: > 10 µM
[30]
  inhibition at 1.25 µM: 20%
[31]
  EC50: > 10 µM
[32]
  EC50: 4.7 µM
[33]
  EC50: 4.4 µM
[34]
  EC50: 4.4 µM
[35]
  half-life: > 240 min
